Reference: paper PMC7057333 (ACS Omega, 2020)
Read-outs that look alike come from different tables or passages of the source. Ends that are not written are not given here.

Columns and labels:
[1] = target: T1, LSD1 (Homo sapiens, UniProt O60341); assay: HRP-coupled fluorescence LSD1 demethylation activity and inhibition assay, substrate H3_1-21 K4(Me); format: biochemical
T1 construct: made in house; host or cells: Escherichia coli Rosetta 2 (pET15b)

[2] = target: T1, LSD1; assay: SPR biosensor interaction kinetic assay with immobilized LSD1 (15 °C, TBS-T with DTT); format: binding
[3] = 100 μM, supplement sheet SMILES and Activity, read-out: Inhibition at 100 μM (%)

## CSCC[C@H](NC(=O)[C@@H](NC(=O)[C@H](CCCNC(=N)N)NC(=O)[C@H](C)N)[C@@H](C)O)C(=O)N[C@@H](CCC(N)=O)C(=O)N[C@H](C(=O)N[C@@H](C)C(=O)N[C@@H](CCCNC(=N)N)C(=O)N[C@@H](CCCCN)C(=O)N[C@@H](CO)C(=O)N[C@H](C(=O)O)[C@@H](C)O)[C@@H](C)O [Peptide 4]
[1]
  IC50: > 100 µM
[2]; KD, SPR, immobilized LSD1, 15 °C, ni = no interaction observed, ns = high nonspecific binding, weak interactions only approximated, highest concentration 200 μM
  Kd: ~140 µM

## C[C@H](N)C(=O)N[C@@H](CCCNC(=N)N)C(=O)N[C@H](C(=O)N[C@@H](CCCCN)C(=O)N[C@@H](CCC(N)=O)C(=O)N[C@H](C(=O)N[C@@H](C)C(=O)N[C@@H](CCCNC(=N)N)C(=O)N[C@@H](CCCCN)C(=O)N[C@@H](CO)C(=O)N[C@H](C(N)=O)[C@@H](C)O)[C@@H](C)O)[C@@H](C)O [Peptide 9]
[2]
  Kd: > 100 µM

## CCCC[C@H](NC(=O)[C@@H](NC(=O)[C@H](CCCNC(=N)N)NC(=O)[C@H](C)N)[C@@H](C)O)C(=O)N[C@@H](CCC(N)=O)C(=O)N[C@H](C(=O)N[C@@H](C)C(=O)N[C@@H](CCCNC(=N)N)C(=O)N[C@@H](CCCCN)C(=O)N[C@@H](CO)C(=O)N[C@H](C(N)=O)[C@@H](C)O)[C@@H](C)O [Peptide 15, ART(Nle)QTARKST-NH2]
[2]
  Kd: > 200 µM

## CCCCCC[C@H](NC(=O)[C@@H](NC(=O)[C@H](CCCNC(=N)N)NC(=O)[C@H](C)N)[C@@H](C)O)C(=O)N[C@@H](CCC(N)=O)C(=O)N[C@H](C(=O)N[C@@H](C)C(=O)N[C@@H](CCCNC(=N)N)C(=O)N[C@@H](CCCCN)C(=O)N[C@@H](CO)C(=O)N[C@H](C(N)=O)[C@@H](C)O)[C@@H](C)O [Peptide 16, ART(Aoc)QTARKST-NH2]
[2]
  Kd: > 200 µM

## C[C@H](N)C(=O)N[C@@H](CCCNC(=N)N)C(=O)N[C@H](C(=O)N[C@@H](CCc1ccccc1)C(=O)N[C@@H](CCC(N)=O)C(=O)N[C@H](C(=O)N[C@@H](C)C(=O)N[C@@H](CCCNC(=N)N)C(=O)N[C@@H](CCCCN)C(=O)N[C@@H](CO)C(=O)N[C@H](C(N)=O)[C@@H](C)O)[C@@H](C)O)[C@@H](C)O [Peptide 17, ART(homoPhe)QTARKST-NH2]
[2]
  Kd: > 200 µM

## CSCC[C@@H]1NC(=O)[C@@H](NC(=O)[C@H](CCCNC(=N)N)NC(=O)[C@H](C)N)C/C=C\C[C@@H](C(=O)N[C@@H](C)C(=O)N[C@@H](CCCNC(=N)N)C(=O)N[C@@H](CCCCN)C(=O)N[C@@H](CO)C(=O)N[C@H](C(N)=O)[C@@H](C)O)NC(=O)[C@H](CCC(N)=O)NC1=O [Peptide 21, ARG^alyMQG^alyARKST-NH2]
[1]; [3]
  inhibition at 100 µM: 95%
[1]; read-out: % inhibition at 100 μM
  inhibition at 100 µM: 95%
[2]
  Kd: > 100 µM

## ARTMQTA-OH [Peptide 6, ARTMQTA-OH]
[2]
  Kd: > 200 µM

## PRTMQTARKST-NH2 [Peptide 11]
[1]
  Ki: 8 µM
[1]; [3]
  inhibition at 100 µM: 93%
[1]; enzyme activity assay, inhibition kinetics
  mode of inhibition: competitive inhibitor
[1]; supplement sheet SMILES and Activity, read-out: IC50
  IC50: 12.5 µM
[2]
  Kd: 10 µM
